# Experimental data published in patent US10183949B2, “Pyrimidinone derivative having autotaxin-inhibitory activity” (The University of Tokyo, priority 2014, dated 2019).
# Biological target: T1, Human autotaxin enzyme (Homo sapiens, UniProt Q13822)
# T1 construct: purchased R&D System
# Assay: Evaluation of autotaxin inhibitor, 18:0 Lyso PC / choline assay (Test Example 2)
# Assay type: biochemical
# Details: autotaxin inhibition, IC50 class; read-out: Inhibitor activity
# Procedure, shortened: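 Inhibition derived from concentration-dependent curves, scaled between no-compound (0%) and no-enzyme (100%) wells. Choline generated from 18:0 Lyso PC (200 μM stock) by human enzyme over 2 h at room temperature (Tris-HCl pH 7.5, NaCl, MgCl2, Triton X-100) read as resorufin fluorescence, 531/598 nm, after choline oxidase-peroxidase coupling.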
row,IC50 [nM],Structure (SMILES)
1,< 10,CC(=O)Nc1cc(Cl)ccc1-c1cc(=O)n(CC(=O)OC(C)(C)C)c(C)n1 [Compound I-0245]
2,10 to 100,CSc1nc(-c2ccc(Cl)cc2NC(C)=O)cc(=O)n1CC(=O)NC(C)(C)CO [Compound I-0252]
3,100 to 1000,CC(=O)Nc1cc(Cl)ccc1-c1cc(=O)n(CC(=O)NC2(C#N)CC2)cn1 [Compound I-0249]

# Same assay, conditions: human autotaxin enzyme, 18:0 Lyso PC substrate, choline assay, room temperature 2 hours; read-out: Inhibitor activity (IC50)
row,Structure (SMILES),IC50 [nM]
1,O=C(Cn1c(CCCC(F)(F)F)nc(-c2ccc(Cl)cc2)cc1=O)NCC1(CO)COC1 [Compound I-0147],10 to 100
2,O=C(c1cccc(Cn2c(CCCC(F)(F)F)nc(-c3ccc(Cl)cc3)cc2=O)c1)N1CCOCC1 [Compound I-0160],10 to 100
3,C[C@@H]1COC[C@H](C)N1C(=O)c1cccc(Cn2c(CCCC(F)(F)F)nc(-c3ccc(Cl)cc3)cc2=O)c1 [Compound I-0199],10 to 100
4,CC(=O)NCCNC(=O)c1cccc(Cn2c(CCCC(F)(F)F)nc(-c3ccc(Cl)cc3)cc2=O)c1 [Compound I-0156],100 to 1000
5,O=C(Cn1cnc(-c2ccc(Cl)cc2)cc1=O)NCCCNC(=O)c1cn[nH]n1 [Compound I-0402],≥ 1000
6,O=C(NC(CO)(CO)CO)c1cccc(Cn2c(CCCC(F)(F)F)nc(-c3ccc(Cl)cc3)cc2=O)c1 [Compound I-0188],100 to 1000
7,N#CC1(NC(=O)Cn2c(CCCC(F)(F)F)nc(-c3ccc(Cl)cc3)c(F)c2=O)CC1 [Compound I-0218],100 to 1000
8,CCOC(=O)c1nc(Cn2c(CCCC(F)(F)F)nc(-c3ccc(Cl)cc3)cc2=O)cs1 [Compound I-0326],10 to 100
9,CS(=O)(=O)CCNC(=O)c1cccc(Cn2c(CCCC(F)(F)F)nc(-c3ccc(Cl)cc3)cc2=O)c1 [Compound I-0177],100 to 1000
10,O=C(NCc1cc(=O)[nH]o1)c1cccc(Cn2c(CCCC(F)(F)F)nc(-c3ccc(Cl)cc3)cc2=O)c1 [Compound I-0170],10 to 100
11,CCCCCc1nc(-c2ccc(Cl)cc2)cc(=O)n1CC(=O)NC1(c2cccnc2)CC1 [Compound I-0089],10 to 100
12,CCC(CO)(CO)NC(=O)Cn1c(CCCC(F)(F)F)nc(-c2ccc(Cl)cc2)cc1=O [Compound I-0144],10 to 100
13,O=C(Cn1c(=O)cc(-c2ccc(Cl)cc2)[nH]c1=O)NC(Cc1ccccc1)C(=O)O (centres unmarked) [Compound I-0150],≥ 1000
14,CC(C)(O)CNC(=O)c1cccc(Cn2c(CCCC(F)(F)F)nc(-c3ccc(Cl)cc3)cc2=O)c1 [Compound I-0187],100 to 1000
15,O=C(Cn1c(CCCC(F)(F)F)nc(-c2ccc(C(F)(F)F)cc2)cc1=O)NCc1c[nH]nn1 [Compound I-0330],10 to 100
16,COc1ccc(Cn2c(-c3ccc(Cl)cc3)cc(=O)n(CC(=O)NC(Cc3ccccc3)C(=O)O)c2=O)cc1 (centres unmarked) [Compound I-0107],≥ 1000
17,CC1(NC(=O)c2cccc(Cn3c(CCCC(F)(F)F)nc(-c4ccc(Cl)cc4)cc3=O)c2)COC1 [Compound I-0185],100 to 1000
18,O=C(Cn1c(CCCC(F)(F)F)nc(-c2ccc(Cl)cc2)cc1=O)NCCCS(=O)(=O)O [Compound I-0138],< 10
19,CCCCCc1nc(-c2ccc(Cl)cc2)cc(=O)n1CC(=O)NC1CCS(=O)(=O)C1 (centres unmarked) [Compound I-0081],10 to 100
20,O=C(Cn1cnc(-c2ccc(Cl)cc2)cc1=O)NC(Cc1ccccc1)C(=O)O (centres unmarked) [Compound I-0396],≥ 1000
21,CCCCCc1nc(-c2ccc(Cl)cc2)cc(=O)n1CC(=O)NCCS(C)(=O)=O [Compound I-0094],10 to 100

# Results, then the compound that gave them:
row,IC50 [nM],Structure (SMILES)
1,< 10,COC(=O)Nc1cc(Cl)ccc1-c1cc(=O)n(CC(=O)NC2(C)COC2)c(C)n1 [Compound I-0410]
2,100 to 1000,Cc1nc(-c2ccc(Cl)cc2NC(=O)C2CC2)cc(=O)n1CC(=O)N1CC(F)C1 [Compound I-0408]
3,100 to 1000,CCCCCc1nc(-c2ccc(Cl)cc2)cc(=O)n1CC(=O)N1CCOC(c2ccccc2)C1 (centres unmarked) [Compound I-0100]
4,< 10,CCCCCc1nc(-c2ccc(Cl)cc2)cc(=O)n1CC(=O)NC12CCC(C(=O)O)(CC1)CC2 [Compound I-0072]
5,10 to 100,COC(=O)Nc1cc(Cl)ccc1-c1cc(=O)n(CC(=O)NC2(C#N)CC2)c(C)n1 [Compound I-0403]
6,10 to 100,Cc1nc(-c2ccc(Cl)cc2NC(=O)C2CC2)cc(=O)n1CC(=O)NC1(C)CC1 [Compound I-0401]
7,< 10,COC(=O)Nc1cc(Cl)ccc1-c1cc(=O)n(CC(=O)N2CCC(CC(=O)OC(C)(C)C)CC2)c(C)n1 [Compound I-0494]
8,< 10,CNC(=O)NC1CCN(C(=O)Cn2c(CCCC(F)(F)F)nc(-c3ccc(C(F)(F)F)cc3)cc2=O)CC1 [Compound I-0356]
9,100 to 1000,CCCCCc1nc(-c2ccc(Cl)cc2)cc(=O)n1CC(=O)N1CCOC[C@H]1C(=O)O [Compound I-0067]
10,10 to 100,Cc1nc(-c2ccc(Cl)cc2NC(=O)C2CC2)cc(=O)n1CC(=O)NCCNS(C)(=O)=O [Compound I-0473]
11,≥ 1000,O=C(O)Cn1c(CCCC(F)(F)F)nc(-c2ccc(Cl)cc2CO)cc1=O [Compound I-0264]
12,10 to 100,Cc1nc(-c2ccc(Cl)cc2NC(=O)C2CC2)cc(=O)n1CC(=O)N1CCN(CC(F)(F)F)CC1 [Compound I-0485]
13,< 10,COC(=O)Nc1cc(C#N)ccc1-c1cc(=O)n(CC(=O)NC2(C#N)CC2)c(C)n1 [Compound I-0394]
14,10 to 100,COC(=O)Nc1cc(C#N)ccc1-c1cc(=O)n(CC(=O)NC2(C)COC2)c(C)n1 [Compound I-0397]
15,≥ 1000,COC(=O)Nc1cc(Cl)ccc1-c1cc(=O)n(CC(=O)N2C(C)(C)CC(O)CC2(C)C)c(C)n1 [Compound I-0384]
16,100 to 1000,CC(C)(C)OC(=O)NCn1c(CCCC(F)(F)F)nc(-c2ccc(Cl)cc2)cc1=O [Compound I-0283]
17,10 to 100,CCCCCc1nc(-c2ccc(Cl)cc2)cc(=O)n1CC(=O)NC1(C#N)CC1 [Compound I-0090]
18,100 to 1000,CCCOCc1nc(-c2ccc(Cl)cc2)cc(=O)n1CC(=O)NC1(C#N)CC1 [Compound I-0203]
19,10 to 100,COC(=O)Nc1cc(C#N)ccc1-c1cc(=O)n(CC(=O)NC(C)(C)C)c(C)n1 [Compound I-0372]
20,10 to 100,CCCCCc1nc(-c2ccc(Cl)cc2)cc(=O)n1CC(=O)NCC#N [Compound I-0085]
21,10 to 100,COC(=O)Nc1cc(C#N)ccc1-c1cc(=O)n(CC(=O)N2CCN(C(N)=O)CC2)c(C)n1 [Compound I-0446]
22,10 to 100,N#CC1(NC(=O)Cn2c(COCC(F)(F)F)nc(-c3ccc(Cl)cc3)cc2=O)CC1 [Compound I-0210]
23,10 to 100,Cc1nc(-c2ccc(Cl)cc2NC(=O)C2CC2)cc(=O)n1CC(=O)NCC(N)=O [Compound I-0406]
24,10 to 100,COC(=O)Nc1cc(Cl)ccc1-c1cc(=O)n(CC(=O)N(C)C2(C)COC2)c(C)n1 [Compound I-0274]
25,10 to 100,O=C(Cn1c(CCCC(F)(F)F)nc(-c2ccc(Cl)cc2)cc1=O)N1CCOC(CO)C1 (centres unmarked) [Compound I-0139]
26,100 to 1000,N#CC1(NC(=O)Cn2c(CCCC(F)(F)F)nc(-c3ccc(Cl)cc3O)cc2=O)CC1 [Compound I-0226]
27,100 to 1000,CN(C)C(=O)CNC(=O)Cn1c(CCCC(F)(F)F)nc(-c2ccc(Cl)cc2)cc1=O [Compound I-0127]
28,100 to 1000,CC(C)(C)C(=O)Nc1cc(Cl)ccc1-c1cc(=O)n(Cc2cccc(C(=O)NCC(N)=O)c2)cn1 [Compound I-0478]
29,10 to 100,Cc1nc(-c2ccc(F)cc2NC(=O)C2CC2)cc(=O)n1Cc1cccc(C(=O)O)c1 [Compound I-0270]
